{"source": "ChEMBL document CHEMBL3881526", "about": "“Selective androgen receptor modulators and method of use thereof” (2007)", "key": {"Rattus norvegicus [1]": {"tested_on": "Rattus norvegicus", "experiment": "Androgenic activity in ORX Sprague-Dawley rat assessed as restoration of seminal vesicles weight at 1000 ug/day delivered at constant rate for 14 days via subcutaneous osmotic pumps", "format": "functional, tissue-based"}, "Rattus norvegicus [2]": {"tested_on": "Rattus norvegicus", "experiment": "Effect on serum LH in ORX Sprague-Dawley rat at 0.3 mg/day delivered at constant rate for 14 days via subcutaneous osmotic pumps", "format": "ADME", "conditions": "sc, 336 h"}, "[3]": {"experiment": "Terminal half life in beagle dog at 3 mg/kg, iv after 72 hrs by HPLC analysis", "format": "ADME, organism-based, Canis lupus familiaris", "conditions": "in vivo, read-out: beta t1/2 (converted)"}, "Rattus norvegicus [4]": {"tested_on": "Rattus norvegicus", "experiment": "Effect on serum FSH in ORX Sprague-Dawley rat at 0.3 mg/day delivered at constant rate for 14 days via subcutaneous osmotic pumps", "format": "ADME", "conditions": "sc, 336 h"}, "Rattus norvegicus [5]": {"tested_on": "Rattus norvegicus", "experiment": "Androgenic activity in ORX Sprague-Dawley rat assessed as restoration of seminal vesicles weight at 0.1 to 1 ug/day delivered at constant rate for 14 days via subcutaneous osmotic pumps", "format": "functional"}, "[6]": {"experiment": "Plasma clearance in beagle dog at 3 mg/kg, iv after 72 hrs by HPLC analysis", "format": "ADME, organism-based, Canis lupus familiaris"}, "[7]": {"experiment": "Oral bioavailability in beagle dog at 10 mg/kg administered via capsule after 72 hrs by HPLC analysis", "format": "ADME, organism-based, Canis lupus familiaris", "conditions": "in vivo"}, "Rattus norvegicus [8]": {"tested_on": "Rattus norvegicus", "experiment": "Anabolic activity in ORX Sprague-Dawley rat assessed as restoration of levator ani muscle weight at 0.1 to 1 ug/day delivered at constant rate for 14 days via subcutaneous osmotic pumps", "format": "functional"}, "Rattus norvegicus [9]": {"tested_on": "Rattus norvegicus", "experiment": "Androgenic activity in ORX Sprague-Dawley rat assessed as restoration of prostate weight at 1000 ug/day delivered at constant rate for 14 days via subcutaneous osmotic pumps", "format": "functional, tissue-based"}, "Rattus norvegicus [10]": {"tested_on": "Rattus norvegicus", "experiment": "Androgenic activity in ORX Sprague-Dawley rat assessed as restoration of prostate weight at 0.1 to 1 ug/day delivered at constant rate for 14 days via subcutaneous osmotic pumps", "format": "functional"}, "[11]": {"experiment": "Oral bioavailability in beagle dog at 10 mg/kg administered via solution after 72 hrs by HPLC analysis", "format": "ADME, organism-based, Canis lupus familiaris", "conditions": "in vivo"}, "Rattus norvegicus [12]": {"tested_on": "Rattus norvegicus", "experiment": "Anabolic activity in ORX Sprague-Dawley rat assessed as restoration of levator ani muscle weight at 1000 ug/day delivered at constant rate for 14 days via subcutaneous osmotic pumps", "format": "functional, tissue-based"}, "Bone marrow cell": {"tested_on": "Bone marrow cell", "experiment": "Induction of differentiation of rat primary bone marrow cells toward osteoblast lineage assessed as ALP activity at 1 uM by spectrophotometric analysis", "format": "functional, cell-based"}, "Rattus norvegicus [13]": {"tested_on": "Rattus norvegicus", "experiment": "Suppression of serum FSH in ORX Sprague-Dawley rat at 0.1 to 1 mg/day delivered at constant rate for 14 days via subcutaneous osmotic pumps", "format": "functional"}, "Rattus norvegicus [14]": {"tested_on": "Rattus norvegicus", "experiment": "Anabolic activity in ORX Sprague-Dawley rat assessed as restoration of levator ani muscle weight at 100 ug/day delivered at constant rate for 14 days via subcutaneous osmotic pumps", "format": "functional, tissue-based"}, "Rattus norvegicus [15]": {"tested_on": "Rattus norvegicus", "experiment": "Androgenic activity in ORX Sprague-Dawley rat assessed as restoration of prostate weight at 100 ug/day delivered at constant rate for 14 days via subcutaneous osmotic pumps", "format": "functional"}, "Rattus norvegicus [16]": {"tested_on": "Rattus norvegicus", "experiment": "Androgenic activity in ORX Sprague-Dawley rat assessed as restoration of seminal vesicles weight at 100 ug/day delivered at constant rate for 14 days via subcutaneous osmotic pumps", "format": "functional"}}, "note": "The source made the active and inactive calls. The rule behind the calls is not given here."}
{"molecule": "CC(=O)Nc1ccc(OC[C@](C)(O)C(=O)Nc2ccc([N+](=O)[O-])c(C(F)(F)F)c2)cc1", "values": [{"measurement": "Activity", "setting": "Rattus norvegicus [1]", "value": "Active"}, {"measurement": "Activity", "setting": "Rattus norvegicus [2]", "value": "Non-Toxic"}, {"measurement": "half-life", "setting": "[3]", "value": 4, "unit": "h"}, {"measurement": "Activity", "setting": "Rattus norvegicus [4]", "value": "Non-Toxic"}, {"measurement": "Activity", "setting": "Rattus norvegicus [5]", "value": "Dose-dependent effect"}, {"measurement": "clearance", "setting": "[6]", "value": 4.4, "unit": "mL/min/kg"}, {"measurement": "bioavailability", "setting": "[7]", "value": 19, "unit": "%"}, {"measurement": "Activity", "setting": "Rattus norvegicus [8]", "value": "Dose-dependent effect"}, {"measurement": "Activity", "setting": "Rattus norvegicus [9]", "value": "Active"}, {"measurement": "Activity", "setting": "Rattus norvegicus [10]", "value": "Dose-dependent effect"}, {"measurement": "bioavailability", "setting": "[11]", "value": 38, "unit": "%"}, {"measurement": "Activity", "setting": "Rattus norvegicus [12]", "value": "Active"}]}
{"molecule": "C[C@](O)(COc1ccc(Cl)cc1)C(=O)Nc1ccc(C#N)c(C(F)(F)F)c1", "values": [{"measurement": "Activity", "setting": "Rattus norvegicus [5]", "value": "Dose-dependent effect"}, {"measurement": "Activity", "setting": "Rattus norvegicus [8]", "value": "Active"}, {"measurement": "Activity", "setting": "Rattus norvegicus [10]", "value": "Dose-dependent effect"}]}
{"molecule": "C[C@]12CCC(=O)C[C@@H]1CC[C@@H]1[C@@H]2CC[C@]2(C)[C@@H](O)CC[C@@H]12", "values": [{"measurement": "Activity", "setting": "Bone marrow cell", "value": "Active"}]}
{"molecule": "CCC(=O)O[C@H]1CC[C@H]2[C@@H]3CCC4=CC(=O)CC[C@]4(C)[C@H]3CC[C@]12C", "values": [{"measurement": "Activity", "setting": "Rattus norvegicus [13]", "value": "Active"}, {"measurement": "Activity", "setting": "Rattus norvegicus [14]", "value": "Active"}, {"measurement": "Activity", "setting": "Rattus norvegicus [15]", "value": "Active"}, {"measurement": "Activity", "setting": "Rattus norvegicus [16]", "value": "Active"}]}
